From paper PMC7395068, “The evolution of strategies to minimise the risk of human drug-induced liver injury (DILI) in drug discovery and development” (Archives of Toxicology, 2020)
Read-outs that look alike come from different tables or passages of the source.

Tests used:
HepaRG spheroids [1] = tested on: HepaRG spheroids
[2] = cited from earlier work
[3] = tested on: HepG2 C3A spheroid, BSEP, Glu/Gal in HepG2 cells, bioactivation; details: cited from earlier work
HepaRG spheroids [4] = assay: Combined HCI (HCS) and cellular ATP 3D assay in HepaRG spheroids; details: HepaRG; for HepaRG <25x Avg Cmax ATP / HepaRG <100x Avg Cmaxu ATP: ATP endpoint; for HepaRG <25x Avg Cmax ATP / HepaRG <25x Avg Cmax HCS / HepaRG <25x Avg Cmax All: cut-off <25x Avg Cmax; for HepaRG <100x Avg Cmaxu ATP / HepaRG <100x Avg Cmaxu HCS / HepaRG <100x Avg Cmaxu All: cut-off <100x Avg Cmaxu; for HepaRG <25x Avg Cmax HCS / HepaRG <100x Avg Cmaxu HCS: HCS endpoints; for HepaRG <25x Avg Cmax All: all endpoints (ATP and HCS); for HepaRG Cmax max All / HepaRG Cmax min All / HepaRG <10 uM All / HepaRG <100x Avg Cmaxu All: all endpoints; for HepaRG Cmax max All: Cmax max used; for HepaRG Cmax min All: Cmax min used; for HepaRG <10 uM All: cut-off <10 uM; for minimal effective concentration: Homo sapiens
PHH = details: cited from earlier work
hLiMTs [5] = assay: Combined HCI (HCS) and cellular ATP 3D assay in hLiMTs; details: for hLiMTs <25x Avg Cmax ATP / hLiMTs <100x Avg Cmaxu ATP: ATP endpoint; for hLiMTs <25x Avg Cmax ATP / hLiMTs <25x Avg Cmax HCS / hLiMTs <25x Avg Cmax All: cut-off <25x Avg Cmax; for hLiMTs <100x Avg Cmaxu ATP / hLiMTs <100x Avg Cmaxu HCS / hLiMTs <100x Avg Cmaxu All: cut-off <100x Avg Cmaxu; for hLiMTs <25x Avg Cmax HCS / hLiMTs <100x Avg Cmaxu HCS: HCS endpoints; for hLiMTs <25x Avg Cmax All: all endpoints (ATP and HCS); for hLiMTs Cmax max All / hLiMTs Cmax min All / hLiMTs <10 uM All / hLiMTs <100x Avg Cmaxu All: all endpoints; for hLiMTs Cmax max All: Cmax max used; for hLiMTs Cmax min All: Cmax min used; for hLiMTs <10 uM All: cut-off <10 uM
[6] = read-out: Human plasma Cmax; total plasma Cmax.tot, median of 9 literature references; cited from earlier work
hLiMTs [7] = details: cited from earlier work
[8] = plasma free fraction; cited from earlier work
hLiMTs [9] = tested on: hLiMTs
[10] = Plasma free fraction (fu) and unbound Cmax (Cmax,u); type: in vitro ADME, human; details: unbound plasma Cmax
Method: The prediction of DILI severity was evaluated further using the 3D combined HCI assays using plasma-free fraction. The majority of fu values were obtained from literature, when unavailable in-house prediction was utilised. Unbound plasma Cmax concentrations (Cmax,u) were derived by multiplying total plasma Cmax with the corresponding free fraction (fu) for each compound.

human hepatocytes = details: cited from earlier work
[11] = tested on: THLE or HepG2 cells, isolated mitochondria, BSEP; details: cited from earlier work
PHH spheroids = details: cited from earlier work
[12] = cited from earlier work; remark: listed apart in the source
[13] = In vitro Assay, ref Proctor 2017

Structure (SMILES): CN(C)C(=O)Oc1cccc([N+](C)(C)C)c1 [neostigmine]
- DILI prediction HepaRG spheroids (HCS-MEC) (HepaRG spheroids [1]): -VE
- Assigned DILI category ([2]; Chen et al. 2016 or literature alignment, ref Chen et al. 2016): 1
- In vivo DILI ([2]; […]): -VE
- In vivo DILI ([2]; ref Proctor 2017): -VE
- In vivo DILI ([2]; ref Williams 2019): -VE
- Bayesian Machine Learning DILI prediction, Williams (2019) ([3]; Bayesian modeling, ref Williams et al. 2019): -VE
- Bayesian Machine Learning ([3]; ref Williams 2019): -VE
- HepaRG <25x Avg Cmax ATP (HepaRG spheroids [4]): -ve
- HepaRG <100x Avg Cmaxu ATP (HepaRG spheroids [4]): -ve
- HepaRG <25x Avg Cmax HCS (HepaRG spheroids [4]): -ve
- HepaRG <100x Avg Cmaxu HCS (HepaRG spheroids [4]): -ve
- HepaRG <25x Avg Cmax All (HepaRG spheroids [4]): -ve
- HepaRG Cmax max All (HepaRG spheroids [4]): -ve
- HepaRG Cmax min All (HepaRG spheroids [4]): -ve
- HepaRG <10 uM All (HepaRG spheroids [4]): -ve
- HepaRG <100x Avg Cmaxu All (HepaRG spheroids [4]): -ve
- PHH/100uM, Proctor (2017) (PHH; 2D PHH, ATP, IC50 threshold 100 µM, ref Proctor et al. 2017): -VE
- PHH ATP <100uM (PHH; [13]): -VE
- PHH/100xCmax, Proctor (2017) (PHH): -VE
- hLiMTs <25x Avg Cmax ATP (hLiMTs [5]): -ve
- hLiMTs <100x Avg Cmaxu ATP (hLiMTs [5]): -ve
- hLiMTs <25x Avg Cmax HCS (hLiMTs [5]): -ve
- hLiMTs <100x Avg Cmaxu HCS (hLiMTs [5]): -ve
- hLiMTs <25x Avg Cmax All (hLiMTs [5]): -ve
- hLiMTs Cmax max All (hLiMTs [5]): -ve
- hLiMTs Cmax min All (hLiMTs [5]): -ve
- hLiMTs <10 uM All (hLiMTs [5]): -ve
- hLiMTs <100x Avg Cmaxu All (hLiMTs [5]): -ve
- Cmax [6]: 45 nM
- hLiMTs ATP <100uM (hLiMTs [7]; [13]): -VE
- hLiMTs/100xCmax, Proctor (2017) (hLiMTs [7]): -VE
- hLiMTs/100uM, Proctor (2017) (hLiMTs [7]; hLiMTs, ATP, IC50 threshold 100 µM, ref Proctor et al. 2017): -VE
- fu [8]: 0.800
- DILI prediction hLiMTs (HCS-MEC) (hLiMTs [9]): -VE
- Human plasma Cmax,u [10]: 0.036 µM

Structure (SMILES): CC(COc1ccccc1)N(CCCl)Cc1ccccc1 (stereo not drawn) [phenoxybenzamine]
- DILI prediction HepaRG spheroids (HCS-MEC) (HepaRG spheroids [1]): -VE
- DILI in vitro assay prediction, Xu (2008) (human hepatocytes): -VE
- Structural based (HCI) (human hepatocytes): -VE
- Partition Hybrid HRM Score [11]: +VE
- Partition Hybrid HRM Score ≥4, Aleo (2019) [11]: +VE (key: +VE: Partition Hybrid HRM Score ≥4)
- Partition Hybrid HRM Score ≥8, Aleo (2019) [11]: -VE
- Ro2 Hybrid HRM Score [11]: +VE
- Rule of Two hybrid HRM Score ≥3, Aleo (2019) [11]: +VE (key: +VE: Rule of Two hybrid HRM Score ≥3)
- Rule of Two hybrid HRM Score ≥8, Aleo (2019) [11]: -VE
- DILI in vitro assay prediction, Vorrink (2018) (PHH spheroids): -VE
- hLiMTs ATP <20 x Cmax (PHH spheroids): -VE
- Assigned DILI category ([2]; in vivo): 1
- In vivo DILI ([2]; in vivo): -VE
- Bayesian Machine Learning [3]: -VE
- Bayesian Machine Learning DILI prediction, Williams (2019) [3]: -VE
- HepaRG <25x Avg Cmax ATP (HepaRG spheroids [4]): -ve
- HepaRG <100x Avg Cmaxu ATP (HepaRG spheroids [4]): -ve
- HepaRG <25x Avg Cmax HCS (HepaRG spheroids [4]): -ve
- HepaRG <100x Avg Cmaxu HCS (HepaRG spheroids [4]): -ve
- HepaRG <25x Avg Cmax All (HepaRG spheroids [4]): -ve
- HepaRG Cmax max All (HepaRG spheroids [4]): -ve
- HepaRG Cmax min All (HepaRG spheroids [4]): -ve
- HepaRG <10 uM All (HepaRG spheroids [4]): -ve
- HepaRG <100x Avg Cmaxu All (HepaRG spheroids [4]): -ve
- minimal effective concentration (HepaRG spheroids [4]; read-out: ATP endpoint MEC): 25.3 µM
- minimal effective concentration (HepaRG spheroids [4]; read-out: HCS endpoint MEC): 53.8 µM
- DILI +VE (5-8), DILI -VE (-4) ([12]; in vivo): -VE
- DILI severity category (Chen et al. [2016]) ([12]; in vivo): No
- PHH ATP <100uM (PHH): -VE
- PHH/100uM, Proctor (2017) (PHH): -VE
- PHH/100xCmax, Proctor (2017) (PHH): -VE
- AC50 (hLiMTs [5]; Homo sapiens, read-out: ATP endpoint AC50): 26.9 µM
- minimal effective concentration (hLiMTs [5]; Homo sapiens, read-out: ATP endpoint MEC): 10.7 µM
- minimal effective concentration (hLiMTs [5]; Homo sapiens, read-out: HCS endpoint MEC): 15.6 µM
- hLiMTs <25x Avg Cmax ATP (hLiMTs [5]): -ve
- hLiMTs <100x Avg Cmaxu ATP (hLiMTs [5]): -ve
- hLiMTs <25x Avg Cmax HCS (hLiMTs [5]): -ve
- hLiMTs <100x Avg Cmaxu HCS (hLiMTs [5]): -ve
- hLiMTs <25x Avg Cmax All (hLiMTs [5]): -ve
- hLiMTs Cmax max All (hLiMTs [5]): -ve
- hLiMTs Cmax min All (hLiMTs [5]): -ve
- hLiMTs <10 uM All (hLiMTs [5]): -ve
- hLiMTs <100x Avg Cmaxu All (hLiMTs [5]): -ve
- Cmax [6]: 197 nM
- hLiMTs ATP <100uM (hLiMTs [7]): -VE
- hLiMTs/100uM, Proctor (2017) (hLiMTs [7]): -VE
- hLiMTs/100xCmax, Proctor (2017) (hLiMTs [7]): -VE
- fu [8]: 0.009
- DILI prediction hLiMTs (HCS-MEC) (hLiMTs [9]): -VE
- Human plasma Cmax,u [10]: 0.002 µM

Structure (SMILES): CC(C)[N+](C)(CCOC(=O)C1c2ccccc2Oc2ccccc21)C(C)C [propantheline]
- HepaRG <10 uM All (HepaRG spheroids [1]): -ve
- HepaRG Cmax max All (HepaRG spheroids [1]; human): -ve
- HepaRG Cmax min All (HepaRG spheroids [1]; human): -ve
- In vivo DILI ([2]; ref Proctor 2017): -VE
- In vivo DILI ([2]; ref Williams 2019): -VE
- Bayesian Machine Learning ([3]; ref Williams 2019): -VE
- DILI severity category ([12]; in vivo): No
- DILI +VE (5-8), DILI -VE (-4) ([12]; ref Chen 2016): -VE
- DILI severity category ([12]; ref Chen 2016): vNo-DILI-Concern
- PHH ATP <100uM (PHH; [13]): -VE
- hLiMTs ATP <100uM (hLiMTs [7]; [13]): -VE
- hLiMTs <10 uM All (hLiMTs [9]): -ve
- hLiMTs Cmax max All (hLiMTs [9]; human): -ve
- hLiMTs Cmax min All (hLiMTs [9]; human): -ve
